Data on one molecule can be found in patent US20060167062A1, “Enema preparation” (priority 2003, published 2006).

In assay [1] the test system is rat model of colitis. Put plainly: Rat model of colitis (TNBS-induced), incidence of diarrhea, enema (intra-rectal) administration. It is filed as in vivo. The settings on record: for incidence of diarrhea: vehicle control 73.9%. The protocol:
A rat model of colitis was prepared in accordance with the method by Morris et al. (Morris GP et al., Hapten-induced model of chronic inflammation and ulceration in the rat colon. Gasteroenterology, 96: 795-803, 1989). Specifically, the rats were fasted for approximately 24 hr and anesthetized with ether. A Teflon catheter (registered trade mark) was inserted into the lumen of the colon via the anus. The tip of the catheter was advanced to 8 cm from the anus, and 0.25 ml of TNBS solution (final concentration of 60 mg/mL in 50% ethanol) was injected into the colon. Rats were held in a vertical position for 30 seconds after TNBS injection (Day-0). One day after an injection of TNBS (Day-1), rats were randomly allocated to the four groups described below based on body weight using a stratified random sampling method. The groups were as follows: The pharmacologically active ingredient and its vehicle were delivered at 8 cm orad to the anal verge of conscious rats through a Teflon catheter (registered trade mark) inserted into the lumen of the colon via the anus. They were administered once daily in the morning for 7 consecutive days from Day-1. On the Day-B, the rats were anesthetized with ether, and sacrificed by exsanguination. The colon, from the end of the cecum to the anus, was excised, opened by a longitudinal incision, and the feces were macroscopically assessed at the excision of colons. When feces were not solid, it ws judged as diarrhea. Rats with no feces in the colon were excluded from diarrhea evaluation. The results of the incidence of diarrhea were expressed as the proportion of rats with diarrhea in each group. Statistical analysis was performed between the vehicle control group (Group A) and the groups administered with the pharmacologically active ingredient (Group B to D) using Fisher's exact test (two-sided) to which Bonferroni correction, which takes multiplicity into consideration, was applied. Statistical significance is defined as p<0.05.

Assay [2] has as its system rat model of colitis. Put plainly: Rat model of colitis (TNBS-induced), incidence of diarrhea, oral administration. The assay is classed as in vivo. The protocol: A rat model of colitis was prepared in accordance with the method by Morris et al. (Morris GP et al., Hapten-induced model of chronic inflammation and ulceration in the rat colon. Gasteroenterology, 96: 795-803, 1989). Specifically, the rats were fasted for approximately 24 hr and anesthetized with ether. A Teflon catheter (registered trade mark) was inserted into the lumen of the colon via the anus. The tip of the catheter was advanced to 8 cm from the anus, and 0.25 ml of TNBS solution (final concentration of 60 mg/mL in 50% ethanol) was injected into the colon. Rats were held in a vertical position for 30 seconds after TNBS injection (Day-0).
On the Day-B, the rats were anesthetized with ether, and sacrificed by exsanguination. The colon, from the end of the cecum to the anus, was excised, opened by a longitudinal incision, and the feces were macroscopically assessed at the excision of colons. When feces were not solid, it ws judged as diarrhea. Rats with no feces in the colon were excluded from diarrhea evaluation.

For the molecule `CCOc1ccc(-c2nc(-c3cccc(C(=O)O)n3)cs2)cc1OCC` [pharmacologically active ingredient, 6-[2-(3,4-diethoxyphenyl)thiazol-4-yl]pyridine-2-carboxylic acid], the incidence of diarrhea in the assay on rat model of colitis [1] (Group B, 0.1 mg/kg/day enema once daily for 7 consecutive days from Day-1) is given as 33.3%; in the assay with rat model of colitis [1] (Group C, 0.3 mg/kg/day enema once daily for 7 consecutive days from Day-1) it was 20.0%; in the assay with rat model of colitis [1] (Group D, 1 mg/kg/day enema once daily for 7 consecutive days from Day-1), 20.0%. Moreover, the “incidence of diarrhea compared with the vehicle control group” value in the assay on rat model of colitis [1] (Groups B to D, 0.1 to 1 mg/kg/day enema, Fisher's exact test with Bonferroni correction, p<0.05) was “suppressed significantly”. Besides, the “amount with significant disorder-suppressing effect, intra-rectal relative to oral administration” value in the assay on rat model of colitis [1] (intra-rectal versus oral, rat model of colitis) was “one tenth”. The “incidence of diarrhea with oral administration” value in the assay on rat model of colitis [2] (1 mg/kg/day) was “significantly effective”; with rat model of colitis [2] (lower than 1 mg/kg/day), “no significant decrease”.
